From patent publication US4248884A, “2-Pyrrolidine methanol derivatives utilizable as medicaments” (Pharmindustrie, priority 1978, dated 1981)
Like-named read-outs stand apart in the source and are kept apart here.

Columns and labels:
[1] = test system: reserpine induced hypothermia (central nervous system); experiment: Action on the central nervous system: reserpine induced hypothermia in mice; assay type: in vivo; conditions: Mus musculus, oral, read-out: DE50 oral (dose exerting an antihypothermic effect equal to 50% of that caused by 15 mg/kg oral imipramine)
Method: The activity of the products on the central nervous system has been shown by the test of reserpine induced hypothermia in mice, according to the method of D. M. Asken, Life Sciences, 1963, vol. 2, p. 725, the disclosure of which is incorporated herein by reference,
The results are expressed by a DE50 or dose of product, in mg/kg, capable of exerting an antihypothermic effect equal to 50% of the antihypothermic effect caused by 15 mg/kg (oral) of imipramine.

[2] = test system: serum triglycerides; experiment: Hypotriglyceridemiant activity: olive oil induced experimental hypertriglyceridemia in fasting rats; assay type: in vivo, male rats
Method: Journal of Pharmacology, 1973, 23, 131, the disclosure of which is incorporated herein by reference.
The rats are killed two hours after the administration of the oil by decapitation. The serum is separated by centrifuging and the triglycerides are determined on an amount of 0.2 ml of serum by extraction with a heptane-isopropanol mixture and colorimetry according to the method of Van Handel et al., J. Lab. and Clin. Med., 1957, 50, 152-157, by using an assembly of analytical reagents known commercially as "Triclycerides-kit Bio Merieux".

[3] = Acute toxicity by oral administration; conditions: in vivo; male mouse CD1, oral, after three days of observation
Description: The acute toxicities of the compounds according to the invention have been determined on the male mouse CD1 (Charles River) by oral administration. The LD50 have been calculated, after three days of observation, by the cumulative method of J. J. Reed et al. (Am. J. Hyg., 1938, 27, 493), the disclosure of which is incorporated herein by reference.

[4] = Rattus norvegicus, po, read-out: % of inhibition (relative reduction of the proportion of serum triglycerides with respect to control animals)
[5] = rat, oral, 100 mg/kg, 2 h before 20 ml/kg olive oil, Student Fischer T test 0.01, read-out: % of inhibition (relative reduction of the proportion of serum triglycerides with respect to control animals)

Row | SMILES | ED50 [1] [mg/kg] | LD50 at 72 h [3] [mg/kg] | other results
1 | O[C@H](c1ccccc1)[C@@H]1CCCN1 (relative stereo) [Example 1, α-phenyl-2-pyrrolidine-methanol (erythro isomer)] | 4.5 | – | inhibition at 50 mg/kg [2, 4]: 33%
2 | O[C@H](c1ccccc1)[C@H]1CCCN1 (relative stereo) [Example 2, α-phenyl-2-pyrrolidine methanol (threo isomer)] | > 150 | 600 | inhibition at 6.25 mg/kg [2, 4]: 41%; inhibition at 50 mg/kg [2, 4]: 45%; hypotriglyceridemiant activity (in words) ([2]; rat, oral, Example 2 at 6.25 mg/kg): still very active
3 | O[C@H](c1ccccc1)[C@H]1CCCN1Cc1ccccc1 (relative stereo) [Example 3, α-phenyl-2-(1-benzyl-pyrrolidine) methanol (threo isomer)] | – | 270 | –
4 | CN1CCC[C@@H]1[C@H](O)c1ccccc1 (relative stereo) [Example 4, α-phenyl-2-(1-methyl-pyrrolidine)methanol (threo isomer)] | – | 800 | –
5 | OCCN1CCC[C@@H]1[C@H](O)c1ccccc1 (relative stereo) [Example 5, α-phenyl-2-(1-β-hydroxyethyl-pyrrolidine)methanol(threo isomer)] | – | 675 | inhibition at 100 mg/kg [2, 5]: 45%
6 | O[C@H](c1ccc(Cl)cc1)[C@@H]1CCCN1 (relative stereo) [Example 6, α-(4-chloro-phenyl)-2-pyrrolidine methanol (erythro isomer)] | 18 | 675 | –
7 | O[C@H](c1ccc(Cl)cc1)[C@H]1CCCN1 (relative stereo) [Example 7, α-(4-chloro-phenyl)-2-pyrrolidine methanol (threo isomer)] | > 50 | 400 | inhibition at 100 mg/kg [2, 5]: 41%
8 | O[C@H](c1ccc(C2CCCCC2)cc1)[C@@H]1CCCN1 (relative stereo) [Example 8, α-(4-cyclohexyl-phenyl)-2-pyrrolidine methanol (erythro isomer)] | – | > 900 | –
9 | CC(C)(C)c1ccc([C@@H](O)[C@@H]2CCCN2)cc1 (relative stereo) [Example 10, α-(4-tertiobutyl-phenyl)-2-pyrrolidine methanol (erythro isomer)] | – | 600 | –
10 | O=C(O)c1cccnc1 [Nictotinic acid, nicotinic acid, reference compound] | – | – | inhibition at 100 mg/kg [2, 4]: 50%
